The results in this text go back to ChEMBL document CHEMBL6083251, “"Pseudosubstrate Envelope"/Free Energy Perturbation-Guided Design and Mechanistic Investigations of Benzothiazole HIV Capsid Modulators with High Ligand Efficiency” (J Med Chem, 2024).

The source made the active and inactive calls. No cut-off for these calls is given here.

Data set [1] has as its system Human immunodeficiency virus 2. As to the kind of experiment: Anti-HIV activity against HIV-2 ROD infected in human MT-4 cells assessed as protection against virus-induced cytopathic effect incubated for 5 days by spectrophotometric based MTT assay. It is filed as functional, organism-based. To be noted: Human immunodeficiency virus 2, ROD, MT4, 120 h.
Data set [2] can be described thus: Selectivity ratio of EC50 for wild type HIV-1 IIIB infected in human MT4 cells to EC50 for HIV-2 ROD infected in human MT-4 cells assessed as protection against virus-induced cytopathic effect incubated for 5 days by spectrophotometric based MTT assay. In kind it is functional. To be noted: time 5 day. In general terms: Cytopathic effects are the visible damage that an infection or toxin causes in cultured cells.

Data set [3] in a line: Selectivity index, ratio of CC50 for human MT4 cells to EC50 for wild type HIV-1 IIIB infected in human MT4 cells. As to conditions: read-out: Selectivity Index. It is filed as toxicity, cell-based.
The subject of another data set is MT4. The data set can be described thus: Cytotoxicity against human MT4 cells assessed as reduction in cell viability incubated for 5 days by spectrophotometric based MTT assay. In kind it is functional. To be noted: MT4, 120 h, time 5 day.
For data set [4], the target named is Structural capsid protein (Human immunodeficiency virus 1, UniProt Q76129). The data set can be described thus: Binding affinity to hexameric HIV-1 NL4.3 capsid protein assessed as dissociation constant by SPR assay. (In SPR one partner is held on a chip, and binding of the other changes the refractive index at the surface.)
The target of data set [5] is Human immunodeficiency virus type 1 reverse transcriptase (Human immunodeficiency virus 1) (UniProt Q72547). As to the kind of experiment: Inhibition of HIV1 reverse transcriptase at 6 nM incubated for 1 hr by ELISA analysis. In general terms: An ELISA detects its analyte on a solid surface through an enzyme-linked reagent.
Data set [6] has as its target Structural capsid protein (Human immunodeficiency virus 1) (UniProt Q76129). As to the kind of experiment: Binding affinity to HIV-1 hexameric capsid protein assessed as reduction in NUP153 binding to capsid protein by competition assay based SPR analysis. To be noted: filed as modulator.
Data set [7] deals with Human immunodeficiency virus 1. The data set can be described thus: Antiviral activity against pseudotyped HIV-1 expressing luciferase-reporter transfected in HEK293T cells assessed as increase in p24 level in progeny virions by ELISA analysis. In kind it is functional, organism-based.
Data set [8] is described as follows: Metabolic stability in human liver microsomes assessed as intrinsic clearance at 1 uM incubated for 60 mins by LC-MS/MS analysis. To be noted: read-out: CLH. In kind it is ADME, Microsome.
Data set [9] can be described thus: Acute toxicity in male Kunming mouse assessed as convulsion at 1000 mg/kg, IG administered via gavage. In kind it is organism-based. To be noted: in vivo, po.
Data set [10] can be described thus: Acute toxicity in male Kunming mouse assessed as anorexia at 1000 mg/kg, IG administered via gavage. To be noted: in vivo, po. It is filed as organism-based.
The nature of data set [11]: Acute toxicity in female Kunming mouse assessed as death at 1000 mg/kg, IG administered via gavage. It is filed as organism-based. As to conditions: in vivo, po.
Data set [12] can be described thus: Subacute toxicity in male Kunming mouse assessed as hypoactivity at 50 mg/kg, po administered every other day for 14 days. It is filed as organism-based. As to conditions: in vivo, 336 h, time 14 day.
A short description of data set [13]: Subacute toxicity in male Kunming mouse assessed as focal lymphocyte infiltration in liver at 50 mg/kg, po administered every other day for 14 days by H and E staining based analysis. In kind it is organism-based. To be noted: in vivo, 336 h, time 14 day.
The nature of data set [14]: Subacute toxicity in male Kunming mouse assessed as pathological damage in kidney at 50 mg/kg, po administered every other day for 14 days by H and E staining based analysis. In kind it is organism-based. To be noted: in vivo, 336 h, time 14 day.

Structural capsid protein (Human immunodeficiency virus 1), sequence (Q76129 as listed by the source): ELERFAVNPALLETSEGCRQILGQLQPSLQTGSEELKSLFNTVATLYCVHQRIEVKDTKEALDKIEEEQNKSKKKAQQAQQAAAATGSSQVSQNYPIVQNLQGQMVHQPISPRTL
Structural capsid protein, sequence (Q76129 whole entry): as the sequence (Q76129 as listed by the source) above

`CN(C(=O)[C@H](Cc1cc(F)cc(F)c1)NC(=O)Cc1c[nH]c2ccc(O)cc12)c1ccc2scnc2c1`: the EC50 in [1] stood at 98 nM. Further, the “Ratio EC50” value in data set [2] was 0.03. Further, the selectivity ratio in data set [3] amounted to 49400. Also, the CC50 in the data set with MT4 was determined as 133000 nM. Further, in data set [4], the Kd was determined as 24.6 nM. In [5], the inhibition result was “inactive”. The result in data set [6] and in data set [7] was Active. The CLint scaled at 1 µM in data set [8] was determined as 15.2 mL/min/kg. The Activity result in [9] is listed as “Non-toxic”; in data set [10], “Non-toxic”; in data set [11] it was “Non-toxic”; in data set [12] it was “Non-toxic”; in data set [13], “Toxic”; in data set [14], “Non-toxic”.

As a reminder, the EC50 is the midpoint of the concentration-response curve. By CC50 is commonly meant the concentration that lowers cell viability or growth by half. Broadly, the Kd is the equilibrium constant for the complex coming apart.
